By EC50 is commonly meant the concentration needed to bring the measured effect to its halfway point.

This assay concerns Aβ42 secretion. Description: Cellular γ-secretase assay (inhibition of Aβ42 secretion). Type of assay: cell-based. To be noted: human neuroglioma H4 cells overexpressing human APP, 22 hours incubation. The procedure:
Cellular γ-Secretase Assay
The compounds were investigated in accordance with the test given hereinafter.
Human neuroglioma H4 cells overexpressing human APP were plated at 30,000 cells/well/200 μL in 96-well plates in IMDM media containing 10% FCS, […] Hygromycin B and incubated for 2 hours at 37° C., 5% CO2 prior to adding test compounds.
Compounds for testing were dissolved in 100% Me2SO yielding in a 10 mM stock solution. Typically 12 μL of these solutions were further diluted in 1000 μL of IMDM media (w/o FCS). Subsequent 1:1 dilutions gave a ten point dose response curve. 100 μL of each dilution was added to the cells in 96-well plates. Appropriate controls using vehicle only and reference compound were applied to this assay. The final concentration of Me2SO was 0.4%.
After incubation for 22 hours at 37° C., 5% CO2, 50 μL supernatant was transferred into round-bottom 96-well polypropylene plates for detection of Aβ42. 50 μL assay buffer (50 mM Tris/Cl, pH 7.4, 60 mM NaCl, 0.5% BSA, 1% TWEEN 20) was added to the wells followed by the addition of 100 μL of detection antibody (ruthenylated BAP15 0.0625 μg/mL in assay buffer). 50 μL of a premix of capture antibody (biotinylated 6E10 antibody, 1 μg/mL) and Streptavidin-coated magnetic beads (Dynal M-280, 0.125 mg/mL) were preincubated for 1 hour at room temperature before adding the assay plates. Assay plates were incubated on a shaker for 3 hours at room temperature and finally read in the Bioveris M8 Analyser according to the manufacturer's instructions (Bioveris).
IC50 values for inhibition of Aβ42 secretion were calculated by nonlinear regression fit analysis using XLfit 4.0 software (IDBS).

Regarding `CC(=O)N1CCC(C(C)c2ccc3[nH]c(C(=O)Nc4cc(F)cc(F)c4)cc3c2)C1` (stereo not drawn) [Example 95, 5-(1-(1-Acetylpyrrolidin-3-yl)ethyl)-N-(3,5-difluorophenyl)-1H-indole-2-carboxamide], for the setting “Homo sapiens, 22 h”, the response was half-maximal at 2480 nM (EC50).

As for `O=C(Nc1cc(F)cc(F)c1)c1cc2cc(C3CCCN(S(=O)(=O)c4ccccc4)C3)ccc2[nH]1` (stereo not drawn) [Example 53, 5-(1-Benzenesulfonyl-piperidin-3-yl)-1H-indole-2-carboxylic acid (3,5-difluoro-phenyl)-amide], a half-maximal response (Homo sapiens, 22 h) (EC50) required 392 nM.

Consider `CC(C)C(=O)N1CCC(c2ccc3[nH]c(C(=O)Nc4cc(F)cc(F)c4)cc3c2)C1` (stereo not drawn) [Example 13, 5-(1-Isobutyryl-pyrrolidin-3-yl)-1H-indole-2-carboxylic acid (3,5-difluoro-phenyl)-amide], for which the EC50 (Homo sapiens, 22 h) came out at 713 nM.

With `CC(C)N1CCC(c2ccc3[nH]c(C(=O)Nc4cccc(C(F)(F)F)c4)cc3c2)CC1` [Example 22, 5-(1-Isopropyl-piperidin-4-yl)-1H-indole-2-carboxylic acid (3-trifluoromethyl-phenyl)-amide], under “Homo sapiens, 22 h”, the EC50 stood at 2270 nM.

`CC(C)N1CCC(c2ccc3[nH]c(C(=O)Nc4ccc(C(C)(C)C)cc4)cc3c2)CC1` [Example 27, 5-(1-Isopropyl-piperidin-4-yl)-1H-indole-2-carboxylic acid (4-tert-butyl-phenyl)-amide] had a concentration for a half-maximal effect (EC50) (Homo sapiens, 22 h) of 8360 nM.

For `COc1cccc(NC(=O)c2cc3cc(C4CCN(C(C)C)CC4)ccc3[nH]2)c1` [Example 25, 5-(1-Isopropyl-piperidin-4-yl)-1H-indole-2-carboxylic acid (3-methoxy-phenyl)-amide], the EC50 (Homo sapiens, 22 h) was 2680 nM.

`O=C(Nc1cccc(F)c1)c1cc2cc(C3CCN(CC(F)(F)F)C3)ccc2[nH]1` (stereo not drawn) [Example 15, N-(3-Fluorophenyl)-5-(1-(2,2,2-trifluoroethyl)pyrrolidin-3-yl)-1H-indole-2-carboxamide]: the midpoint of the response (Homo sapiens, 22 h), the EC50, lay at 1240 nM.

The compound `CC(C)N1CCN(c2ccc3[nH]c(C(=O)Nc4ccc(F)c(F)c4)cc3c2)CC1` [Example 63, 5-(4-Isopropyl-piperazin-1-yl)-1H-indole-2-carboxylic acid (3,4-difluoro-phenyl)-amide] came in with a concentration giving a half-maximal response (EC50) (Homo sapiens, 22 h) of 614 nM.

Consider `N#CCN1CCC(c2ccc3[nH]c(C(=O)Nc4cncc(F)c4)cc3c2)C1` (stereo not drawn) [Example 80, 5-(1-Cyanomethyl-pyrrolidin-3-yl)-1H-indole-2-carboxylic acid (5-fluoro-pyridin-3-yl)-amide], for which it took 942 nM to reach a half-maximal effect (Homo sapiens, 22 h) (EC50).

`CC(C)N1CCC(Nc2ccc3[nH]c(C(=O)Nc4ccc(F)c(F)c4)cc3c2)CC1` [Example 65, 5-(1-Isopropyl-piperidin-4-ylamino)-1H-indole-2-carboxylic acid (3,4-difluoro-phenyl)-amide]: a half-maximal response (Homo sapiens, 22 h) (EC50) required 2950 nM.

Consider `O=C(Nc1ccc(F)c(F)c1)c1cc2cc(C(O)CN3CCCCC3)ccc2[nH]1` (stereo not drawn) [Example 100, 5-(1-Hydroxy-2-piperidin-1-yl-ethyl)-1H-indole-2-carboxylic acid (3,4-difluoro-phenyl)-amide], for which, for the setting “Homo sapiens, 22 h”, a half-maximal response (EC50) required 2610 nM.

The compound `CC(C)N1CCC(c2ccc3[nH]c(C(=O)Nc4cc(F)cc(F)c4)cc3c2)C1` (stereo not drawn) [Example 11, 5-(1-Isopropyl-pyrrolidin-3-yl)-1H-indole-2-carboxylic acid (3,5-difluoro-phenyl)-amide] displayed a concentration for a half-maximal effect (EC50) (Homo sapiens, 22 h) of 321 nM.

Under “Homo sapiens, 22 h”, `O=C(Nc1cccc(F)c1)c1cc2cc(C3CCCNC3)ccc2[nH]1` (stereo not drawn) [Example 69, N-(3-Fluorophenyl)-5-(piperidin-3-yl)-1H-indole-2-carboxamide] returned an EC50 of 662 nM.

Turning to `CC(c1ccc2[nH]c(C(=O)Nc3cc(F)cc(F)c3)cc2c1)C1CCN(CC(F)(F)F)C1` (stereo not drawn) [Example 96, N-(3,5-Difluorophenyl)-5-(1-(1-(2,2,2-trifluoroethyl)pyrrolidin-3-yl)ethyl)-1H-indole-2-carboxamide], the midpoint of the response (Homo sapiens, 22 h), the EC50, lay at 7720 nM.

For `O=C(Nc1cccc(F)c1)c1cc2cc([C@@H]3CCCN(CCO)C3)ccc2[nH]1` [Example 115, (S)—N-(3-Fluorophenyl)-5-(1-(2-hydroxyethyl)piperidin-3-yl)-1H-indole-2-carboxamide], the EC50 (Homo sapiens, 22 h) worked out at 1500 nM.

In the case of `CC(C)N1CC=C(c2ccc3[nH]c(C(=O)Nc4cc(F)cc(F)c4)cc3c2)CC1` [Example 87, 5-(1-Isopropyl-1,2,3,6-tetrahydro-pyridin-4-yl)-1H-indole-2-carboxylic acid (3,5-difluoro-phenyl)-amide], the EC50 (Homo sapiens, 22 h) turned out to be 1300 nM.

The compound `O=C(Nc1cccc(F)c1)c1cc2cc([C@H]3CCCN(C4CC4)C3)ccc2[nH]1` [Example 116, (R)-5-(1-Cyclopropylpiperidin-3-yl)-N-(3-fluorophenyl)-1H-indole-2-carboxamide] returned an EC50 (Homo sapiens, 22 h) of 545 nM.

For the setting “Homo sapiens, 22 h”, `O=C(Nc1ccc(F)cc1)c1cc2cc(C3CCN(C(=O)c4ccccc4)CC3)ccc2[nH]1` [Example 35, 5-(1-Benzoyl-piperidin-4-yl)-1H-indole-2-carboxylic acid (4-fluoro-phenyl)-amide] registered a half-maximal effective concentration (EC50) of 1390 nM.

Regarding `CS(=O)(=O)N1CCCC(c2ccc3[nH]c(C(=O)Nc4cc(F)cc(F)c4)cc3c2)C1` (stereo not drawn) [Example 49, 5-(1-Methanesulfonyl-piperidin-3-yl)-1H-indole-2-carboxylic acid (3,5-difluoro-phenyl)-amide], a half-maximal response (Homo sapiens, 22 h) (EC50) required 148 nM.

Take `Cn1cnc(S(=O)(=O)N2CCCC(c3ccc4[nH]c(C(=O)Nc5cc(F)cc(F)c5)cc4c3)C2)c1` (stereo not drawn) [Example 58, 5-[1-(1-Methyl-1H-imidazole-4-sulfonyl)-piperidin-3-yl]-1H-indole-2-carboxylic acid (3,5-difluoro-phenyl)-amide]: a half-maximal response (Homo sapiens, 22 h) (EC50) required 744 nM.

`O=C(Nc1cncc(F)c1)c1cc2cc(C3CCN(CC4CC4)C3)ccc2[nH]1` (stereo not drawn) [Example 79, 5-(1-(Cyclopropylmethyl)pyrrolidin-3-yl)-N-(5-fluoropyridin-3-yl)-1H-indole-2-carboxamide] gave a half-maximal effective concentration (EC50) (Homo sapiens, 22 h) of 981 nM.

Turning to `CC(C)S(=O)(=O)N1CCC(c2ccc3[nH]c(C(=O)Nc4cc(F)cc(F)c4)cc3c2)C1` (stereo not drawn) [Example 107], the EC50 came out at 628 nM.

`O=C(Nc1cc(F)cc(F)c1)c1cc2cc(C3CCN(Cc4ccccc4)C3)ccc2[nH]1` (stereo not drawn) [Example 1, 5-(1-Benzylpyrrolidin-3-yl)-N-(3,5-difluorophenyl)-1H-indole-2-carboxamide] yielded a half-maximal effective concentration (EC50) (Homo sapiens, 22 h) of 795 nM.

`O=C(Nc1cccc(F)c1)c1cc2cc(C3CCCN(CC4CC4)C3)ccc2[nH]1` (stereo not drawn) [Example 71, 5-(1-(Cyclopropylmethyl)piperidin-3-yl)-N-(3-fluorophenyl)-1H-indole-2-carboxamide]: the EC50 (Homo sapiens, 22 h) was 977 nM.

Consider `O=C(Nc1cc(F)cc(F)c1)c1cc2cc(C3CCCNC3)ccc2[nH]1` (stereo not drawn) [Example 62, 5-Piperidin-3-yl-1H-indole-2-carboxylic acid (3,5-difluoro-phenyl)-amide], for which the EC50 (Homo sapiens, 22 h) amounted to 354 nM.

In turn, `O=C(Nc1cncc(F)c1)c1cc2cc(C3CCN(S(=O)(=O)c4ccc(F)cc4)C3)ccc2[nH]1` (stereo not drawn) [Example 84, 5-(1-(4-Fluorophenylsulfonyl)pyrrolidin-3-yl)-N-(5-fluoropyridin-3-yl)-1H-indole-2-carboxamide] yielded a half-maximal effective concentration (EC50) (Homo sapiens, 22 h) of 4860 nM.

As to `COc1ccc(NC(=O)c2cc3cc(C4CCN(C(C)C)CC4)ccc3[nH]2)cc1` [Example 26, 5-(1-Isopropyl-piperidin-4-yl)-1H-indole-2-carboxylic acid (4-methoxy-phenyl)-amide], where the note is “Homo sapiens, 22 h”, it took 10900 nM to reach a half-maximal effect (EC50).

As to `CC(C)OC(=O)N1CCC(c2ccc3[nH]c(C(=O)Nc4cncc(F)c4)cc3c2)C1` (stereo not drawn) [Example 77, isopropyl 3-(2-(5-fluoropyridin-3-ylcarbamoyl)-1H-indol-5-yl)pyrrolidine-1-carboxylate], the concentration giving a half-maximal response (EC50) (Homo sapiens, 22 h) worked out at 3760 nM.

The compound `CCCN1CCC(c2ccc3[nH]c(C(=O)Nc4ccc(F)cc4)cc3c2)CC1` [Example 40, 5-[1-Propyl-piperidin-4-yl]-1H-indole-2-carboxylic acid (4-fluoro-phenyl)-amide] came in with a concentration for a half-maximal effect (EC50) (Homo sapiens, 22 h) of 1700 nM.

With `CC(C)C(=O)N1CC[C@@H](c2ccc3[nH]c(C(=O)Nc4cc(F)cc(F)c4)cc3c2)C1` [Example 106, 5-((S)-1-Isobutyryl-pyrrolidin-3-yl)-1H-indole-2-carboxylic acid (3,5-difluoro-phenyl)-amide], the concentration for a half-maximal effect (EC50) (Homo sapiens, 22 h) worked out at 889 nM.

Take `N#CCN1CC[C@H](c2ccc3[nH]c(C(=O)Nc4cccc(F)c4)cc3c2)C1` [Example 108, (R)-5-(1-(Cyanomethyl)pyrrolidin-3-yl)-N-(3-fluorophenyl)-1H-indole-2-carboxamide]: under “Homo sapiens, 22 h”, the midpoint of the response, the EC50, lay at 646 nM.

For the compound `CC(C)N1CCCC(c2ccc3[nH]c(C(=O)Nc4cc(F)cc(F)c4)cc3c2)C1` (stereo not drawn) [Example 21, 5-(1-Isopropyl-piperidin-3-yl)-1H-indole-2-carboxylic acid (3,5-difluoro-phenyl)-amide], where the note is “Homo sapiens, 22 h”, it took 177 nM to reach a half-maximal effect (EC50).

In the case of `CN1CC[C@H](c2ccc3[nH]c(C(=O)Nc4cc(F)cc(F)c4)cc3c2)C1` [Example 103, 5-((R)-1-Methyl-pyrrolidin-3-yl)-1H-indole-2-carboxylic acid (3,5-difluoro-phenyl)-amide], the concentration giving a half-maximal response (EC50) is 374 nM.
